One assay relates to Ba/F3 HER2 A775insYVMA. The assay is described as follows: Growth inhibition of Ba/F3 cells engineered to overexpress HER2 A775_G776insYVMA (CellTiter-Glo luminescence). In kind it is cell-based. The settings on record: concentrations 1000 to 0.32 nM, read-out: Ba/F3 HER2^YVMA GI50 class. Here is the method: (§1) Experimental Example: Growth inhibition of Ba/F3 HER2 A775insYVMA and wild-type Ba/F3 cells
(§2) In this Experimental Example, the compounds obtained in Examples 1 to 92 were evaluated for their ability to inhibit growth of cells harboring either the HER2 A775insYVMA mutation or wild-type EGFR. For this purpose, Ba/F3 cells (ATCC, USA) were genetically engineered to overexpress either HER2 A775_G776insYVMA or wild-type EGFR, and the growth of these engineered Ba/F3 cells were monitored in the presence of the compounds described in the Examples to evaluate their effects on growth inhibition.
(§3) Specifically, culture flasks of the engineered Ba/F3 cells suspended in RPMI 1640 medium supplemented with 10% fetal bovine serum (FBS) and 1% penicillin/streptomycin (Gibco BRL, USA) were placed in a cell incubator and incubated at 37°C and 5% CO2 level to allow them to reach a stable logarithmic growth phase. The cells were then harvested by centrifugation to remove the old media and placed into a 96-well plate by dividing them into 100 µL aliquots per well at a dilution of 1×10^5 cells/mL in fresh media. Each of the compounds prepared in the preceding Examples were dissolved in 99.5% (cell culture grade) dimethylsulfoxide (DMSO) to prepare a stock solution of 10 mM concentration, which were serially diluted in the culture medium to final concentrations of 1000, 200, 40, 8, 1.6 and 0.32 nM for HER2 A775insYVMA Ba/F3 cells and concentrations of 10000, 5000, 1000, 200, 40 and 8 nM for wild-type EGFR overexpressing Ba/F3 cells.
(§4) To each aliquot of cells in the 96-well plate, a 50 µL test solution comprising one of the compounds was added to result in each well a 150 µL volume of cells with a compound in a final concentration ranging from 10 µM to 0.32 nM. The Ba/F3 cells treated with the test solution were incubated for 72 hours at 37°C and 5% CO2 level and underwent a 30-minute acclimation by placing the 96-well plate carrying the cells in ambient temperature. Thereafter, to each well was added 50 µL CellTiter-Glo® Luminescent Cell Assay Reagent (CTG, Promega, USA). After allowing 10 minutes to stabilize the signal, luminescence intensity was measured using a microplate reader. The half-maximal growth inhibition concentration (GI50) was calculated from the luminescence readout of the test compounds with the difference between the initial and final cell densities for the well untreated with a compound set at 100% growth. Nonlinear regression analysis based on log[inhibitor] vs. normalized response mode of the Graph Prism software was used for calculating GI50 for each compound, which are summarized in Table 6. The calculated GI50 values are classified in Table 6 into four categories: A for GI50 values less than 100 nM, B for GI50 values more than 100 nM but less than 1,000 nM, C for GI50 values more than 1,000 nM but less than 5,000 nM, and D for GI50 values of more than 5,000 nM.
Background: Cellular ATP, detected with luciferase, serves as a proxy for viable cell number.

In assay [1] the test system is wild-type EGFR overexpressing Ba/F3 cells. The assay is described as follows: Growth inhibition of Ba/F3 cells engineered to overexpress wild-type EGFR (CellTiter-Glo luminescence). It is filed as cell-based. The settings on record: concentrations 10000 to 8 nM, read-out: Ba/F3 EGFR^WT GI50 class. Here is the method:
as §1, §2, §3, §4

Like-named read-outs stand apart in the source and are kept apart here.

As to `Cc1cc(Nc2ncnc3ccc(/C=C/CN(C)C(=O)/C=C/CN4CCCCC4)nc23)ccc1Oc1ccc2c(c1)ncn2C` [Example 61, (E)-N-methyl-N-((E)-3-(4-((3-methyl-4-((1-methyl-1H-benzo[d]imidazol-5-yl)oxy)phenyl)amino)pyrido[3,2-d]pyrimidin-6-yl)allyl)-4-(piperidin-1-yl)but-2-enamide], the GI50 in the assay on Ba/F3 HER2 A775insYVMA (Mus musculus, BaF3, 72 hours) is less than 100 nM; in assay [1] (Mus musculus, BaF3, 72 hours) it was 1000 to 5000 nM.

In the case of `C=CC(=O)N(C)C/C=C/c1ccc2ncnc(Nc3ccc(Cc4ccn5ncnc5c4)c(C)c3)c2n1` [Example 56, (E)-N-(3-(4-((4-([1,2,4]triazolo[1,5-a]pyridin-7-ylmethyl)-3-methylphenyl)amino)pyrido[3,2-d]pyrimidin-6-yl)allyl)-N-methylacrylamide], the GI50 is less than 100 nM in the assay with Ba/F3 HER2 A775insYVMA (Mus musculus, BaF3, 72 hours) and 100 to 1000 nM in assay [1] (Mus musculus, BaF3, 72 hours).

In the case of `C=CC(=O)N(C)CCOc1ccc2ncnc(Nc3ccc(Oc4ccc5c(c4)ncn5C)c(C)c3)c2n1` [Example 6, N-methyl-N-(2-((4-((3-methyl-4-((1-methyl-1H-benzo[d]imidazol-5-yl)oxy)phenyl)amino)pyrido[3,2-d]pyrimidin-6-yl)oxy)ethyl)acrylamide], the GI50 in the assay on Ba/F3 HER2 A775insYVMA (Mus musculus, BaF3, 72 hours) was less than 100 nM; in assay [1] (Mus musculus, BaF3, 72 hours) it was greater than 5000 nM.

Turning to `C=CC(=O)NC/C=C/c1ccc2ncnc(Nc3ccc(Oc4ccc5c(c4)ncn5C)c(C)c3Cl)c2n1` [Example 36, (E)-N-(3-(4-((2-chloro-3-methyl-4-((1-methyl-1H-benzo[d]imidazol-5-yl)oxy)phenyl)amino)pyrido[3,2-d]pyrimidin-6-yl)allyl)acrylamide], the GI50 in the assay with Ba/F3 HER2 A775insYVMA (Mus musculus, BaF3, 72 hours) was less than 100 nM; in assay [1] (Mus musculus, BaF3, 72 hours), greater than 5000 nM.

`C=CC(=O)N(C)CC#Cc1ncc2ncnc(Nc3ccc(Oc4ccn5ncnc5c4)c(C)c3)c2n1` [Example 69, N-(3-(8-((4-([1,2,4]triazolo[1,5-a]pyridin-7-yloxy)-3-methylphenyl)amino)pyrimido[5,4-d]pyrimidin-2-yl)prop-2-yn-1-yl)-N-methylacrylamide]: the GI50 was 100 to 1000 nM in the assay with Ba/F3 HER2 A775insYVMA (Mus musculus, BaF3, 72 hours) and 100 to 1000 nM in assay [1] (Mus musculus, BaF3, 72 hours).

In the case of `C=CC(=O)N(C)CCCNc1ccc2ncnc(Nc3ccc(Oc4ccc5c(c4)ncn5C)c(C)c3)c2n1` [Example 17, N-methyl-N-(3-((4-((3-methyl-4-((1-methyl-1H-benzo[d]imidazol-5-yl)oxy)phenyl)amino)pyrido[3,2-d]pyrimidin-6-yl)amino)propyl)acrylamide], the GI50 is less than 100 nM in the assay on Ba/F3 HER2 A775insYVMA (Mus musculus, BaF3, 72 hours) and greater than 5000 nM in assay [1] (Mus musculus, BaF3, 72 hours).

On to `C=CC(=O)N1CC[C@@H]1C#Cc1ccc2ncnc(Nc3ccc(Oc4ccn5ncnc5c4)c(C)c3)c2c1` [Example 78, (R)-1-(2-((4-((4-([1,2,4]triazolo[1,5-a]pyridin-7-yloxy)-3-methylphenyl)amino)quinazolin-6-yl)ethynyl)azetidin-1-yl)prop-2-en-1-one], for which the GI50 in the assay on Ba/F3 HER2 A775insYVMA (Mus musculus, BaF3, 72 hours) was less than 100 nM; in assay [1] (Mus musculus, BaF3, 72 hours), 100 to 1000 nM.

In the case of `C=CC(=O)N1CCCC[C@@H]1C#Cc1ccc2ncnc(Nc3ccc(Oc4ccn5ncnc5c4)c(C)c3)c2n1` [Example 82, (R)-1-(2-((4-((4-([1,2,4]triazolo[1,5-a]pyridin-7-yloxy)-3-methylphenyl)amino)pyrido[3,2-d]pyrimidin-6-yl)ethynyl)piperidin-1-yl)prop-2-en-1-one], the GI50 in the assay with Ba/F3 HER2 A775insYVMA (Mus musculus, BaF3, 72 hours) was less than 100 nM; in assay [1] (Mus musculus, BaF3, 72 hours) it was 100 to 1000 nM.

As to `Cc1cc(Nc2ncnc3ccc(/C=C/CNC(=O)/C=C/CN4CCCCC4)nc23)ccc1Oc1ccc2c(c1)ncn2C` [Example 59, (E)-N-((E)-3-(4-((3-methyl-4-((1-methyl-1H-benzo[d]imidazol-5-yl)oxy)phenyl)amino)pyrido[3,2-d]pyrimidin-6-yl)allyl)-4-(piperidin-1-yl)but-2-enamide], the GI50 in the assay on Ba/F3 HER2 A775insYVMA (Mus musculus, BaF3, 72 hours) was less than 100 nM; in assay [1] (Mus musculus, BaF3, 72 hours), 1000 to 5000 nM.

For `C=CC(=O)N(C)CC/C=C/c1ccc2ncnc(Nc3ccc(Oc4ccc5c(c4)ncn5C)c(C)c3)c2n1` [Example 26, (E)-N-methyl-N-(4-(4-((3-methyl-4-((1-methyl-1H-benzo[d]imidazol-5-yl)oxy)phenyl)amino)pyrido[3,2-d]pyrimidin-6-yl)but-4-en-1-yl)acrylamide], the GI50 in the assay with Ba/F3 HER2 A775insYVMA (Mus musculus, BaF3, 72 hours) is less than 100 nM; in assay [1] (Mus musculus, BaF3, 72 hours), 1000 to 5000 nM.

In the case of `Cc1cc(Nc2ncnc3ccc(/C=C/CNC(=O)/C=C/[C@H]4CCCN4C)nc23)ccc1Oc1ccc2c(c1)ncn2C` [Example 58, (E)-N-((E)-3-(4-((3-methyl-4-((1-methyl-1H-benzo[d]imidazol-5-yl)oxy)phenyl)amino)pyrido[3,2-d]pyrimidin-6-yl)allyl)-3-((R)-1-methylpyrrolidin-2-yl)acrylamide], the GI50 in the assay on Ba/F3 HER2 A775insYVMA (Mus musculus, BaF3, 72 hours) was in the range of 100 to 1000 nM; in assay [1] (Mus musculus, BaF3, 72 hours) it was 1000 to 5000 nM.

Take “N-methyl-N-(2-((8-((3-methyl-4-((1-methyl-1H-benzo[d]imidazol-5-yl)oxy)phenyl)amino)pyrimido[5,4-d]pyrimidin-2-yl)amino)ethyl)acrylamide [Example 16]”: the GI50 was 100 to 1000 nM in the assay with Ba/F3 HER2 A775insYVMA (72 hours) and greater than 5000 nM in assay [1] (72 hours).

`C=CC(=O)NC/C=C/c1ccc2ncnc(Nc3ccc(Oc4ccc5c(c4)ncn5C)c(C)c3)c2n1` [Example 33, (E)-N-(3-(4-((3-methyl-4-((1-methyl-1H-benzo[d]imidazol-5-yl)oxy)phenyl)amino)pyrido[3,2-d]pyridin-6-yl)allyl)acrylamide]: the GI50 with Ba/F3 HER2 A775insYVMA (Mus musculus, BaF3, 72 hours) is less than 100 nM; in assay [1] (Mus musculus, BaF3, 72 hours) it was 1000 to 5000 nM.

As to `C=CC(=O)N(C)CCOc1ccc2ncnc(Nc3ccc(Oc4ccn5ncnc5c4)c(C)c3)c2c1` [Example 1, N-(2-((4-((4-([1,2,4]triazolo[1,5-a]pyridin-7-yloxy)-3-methylphenyl)amino)quinazolin-6-yl)oxy)ethyl)-N-methylacrylamide], the GI50 in the assay on Ba/F3 HER2 A775insYVMA (Mus musculus, BaF3, 72 hours) was less than 100 nM; in assay [1] (Mus musculus, BaF3, 72 hours), 100 to 1000 nM.

With `C=CC(=O)N(C)CC#Cc1ccc2ncnc(Nc3ccc(Oc4ccn5ncnc5c4)c(C)c3)c2c1` [Example 65, N-(3-(4-((4-([1,2,4]triazolo[1,5-a]pyridin-7-yloxy)-3-methylphenyl)amino)quinazolin-6-yl)prop-2-yn-1-yl)-N-methylacrylamide], the GI50 in the assay on Ba/F3 HER2 A775insYVMA (Mus musculus, BaF3, 72 hours) is less than 100 nM; in assay [1] (Mus musculus, BaF3, 72 hours) it was 100 to 1000 nM.

As for `C=CC(=O)N(C)CCOc1ccc2ncnc(Nc3ccc(Oc4ccn5ncnc5c4)c(C)c3)c2n1` [Example 3, N-(2-((4-((4-([1,2,4]triazolo[1,5-a]pyridin-7-yloxy)-3-methylphenyl)amino)pyrido[3,2-d]pyrimidin-6-yl)oxy)ethyl)-N-methylacrylamide], the GI50 was less than 100 nM in the assay on Ba/F3 HER2 A775insYVMA (Mus musculus, BaF3, 72 hours) and 100 to 1000 nM in assay [1] (Mus musculus, BaF3, 72 hours).

For the compound `C=CC(=O)N(C)C/C=C/c1ccc2ncnc(Nc3ccc(Oc4ccc5c(c4)ncn5C)c(C)c3)c2c1` [Example 22], the GI50 with Ba/F3 HER2 A775insYVMA (Mus musculus, BaF3, 72 hours) was less than 100 nM; in assay [1] (Mus musculus, BaF3, 72 hours) it was 1000 to 5000 nM.

In the case of `C=CC(=O)N(C)CC#Cc1cc2c(Nc3ccc(Oc4ccn5ncnc5c4)c(C)c3)ncnc2cc1OC` [Example 73, N-(3-(4-((4-([1,2,4]triazolo[1,5-a]pyridin-7-yloxy)-3-methylphenyl)amino)-7-methoxyquinazolin-6-yl)prop-2-yn-1-yl)-N-methylacrylamide], the GI50 lay within 1000 to 5000 nM in the assay with Ba/F3 HER2 A775insYVMA (Mus musculus, BaF3, 72 hours) and 1000 to 5000 nM in assay [1] (Mus musculus, BaF3, 72 hours).

On to `C=CC(=O)N(C)c1cccc(/C=C/c2ccc3ncnc(Nc4ccc(Oc5ccc6c(c5)ncn6C)c(C)c4)c3n2)c1` [Example 63, (E)-N-methyl-N-(3-(2-(4-((3-methyl-4-((1-methyl-1H-benzo[d]imidazol-5-yl)oxy)phenyl)amino)pyrido[3,2-d]pyrimidin-6-yl)vinyl)phenyl)acrylamide], for which the GI50 in the assay with Ba/F3 HER2 A775insYVMA (Mus musculus, BaF3, 72 hours) was in the range of 100 to 1000 nM; in assay [1] (Mus musculus, BaF3, 72 hours), 1000 to 5000 nM.

`C=CC(=O)NCCOc1ccc2ncnc(Nc3ccc(Oc4ccc5c(c4)ncn5C)c(C)c3)c2c1` [Example 10, N-(2-((4-((3-methyl-4-((1-methyl-1H-benzo[d]imidazol-5-yl)oxy)phenyl)amino)quinazolin-6-yl)oxy)ethyl)acrylamide]: the GI50 in the assay on Ba/F3 HER2 A775insYVMA (Mus musculus, BaF3, 72 hours) is less than 100 nM; in assay [1] (Mus musculus, BaF3, 72 hours) it was 1000 to 5000 nM.

Regarding `C=CC(=O)N1CC(/C=C/c2ccc3ncnc(Nc4ccc(Oc5ccc6c(c5)ncn6C)c(C)c4F)c3n2)C1` [Example 46], the GI50 is less than 100 nM in the assay on Ba/F3 HER2 A775insYVMA (Mus musculus, BaF3, 72 hours) and 1000 to 5000 nM in assay [1] (Mus musculus, BaF3, 72 hours).

The record behind these values is patent EP4782450A1, “NOVEL SKELETAL DERIVATIVE EFFECTIVE FOR HER2 MUTATION, AND PHARMACEUTICAL COMPOSITION COMPRISING SAME” (Hanmi Pharm. Co., Ltd., priority 2023, dated 2025).
